Among the test systems are ACHN; IGROV-1; OVCAR-5; TK-10; HOP-92; RPMI-8226; SK-MEL-2; SN12C; OVCAR-8; CCRF-CEM; COLO 205; HOP-62; UO-31; HCT-15; CAKI-1; SW-620; KM12; SF-539; SK-MEL-5; U-251.
Holding throughout (test): NCI-60 cell line screen, 48 h

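Values below derive from 48-hour exposures of cells grown in 96-well plates, with endpoints linearly interpolated between the two concentrations bracketing the appropriate inhibition level. GI50: concentration for 50% inhibition of growth.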 The source made the active and inactive calls. Cut-off read from the data, not from the text of the source: active = GI50 up to about 1.1 µM and inactive = higher. Bounds are passed on as bounds.

Consider `O=C1CC2CC3OC3[C@H]3c4cc5c(cc4C(=O)N1C23)OCO5` (stereo partly specified), for which the GI50 with ACHN, in the assay on IGROV-1, with OVCAR-5, with TK-10, in the assay with HOP-92 and with RPMI-8226 was > 100 µM (inactive) throughout. The GI50 with SK-MEL-2, in the assay on SN12C, with OVCAR-8, with CCRF-CEM, in the assay on COLO 205 and with HOP-62 was > 100 µM (inactive) throughout. Besides, the GI50 with UO-31 is > 100 µM (inactive); in the assay on HCT-15, greater than 100 µM; in the assay on CAKI-1, > 100 µM (inactive); with SW-620, > 100 µM (inactive); in the assay with KM12 it was > 100 µM (inactive); in the assay on SF-539, > 100 µM (inactive).

For the molecule `Nc1nnc(O)c2c1c(I)cn2C1OC(CO)C(O)C1O` (stereo unspecified), the GI50 was 0.592 µM (active) in the assay with ACHN; 0.643 µM (active) in the assay with IGROV-1; 0.689 µM (active) in the assay on OVCAR-5; 1.89 µM (inactive) in the assay on SK-MEL-5; 3.01 µM (inactive) in the assay on TK-10; 0.805 µM (active) in the assay with HOP-92. The GI50 in the assay on RPMI-8226 was 0.35 µM (active); in the assay with SK-MEL-2, 0.0226 µM (active); in the assay with SN12C, 0.284 µM (active); in the assay with OVCAR-8 it was 0.105 µM (active); in the assay with CCRF-CEM, 0.129 µM (active); in the assay with COLO 205, 0.708 µM (active). The GI50 with HOP-62 is 2.5 µM (inactive); in the assay with UO-31 it was 1.52 µM (inactive); with U-251, 1.09 µM (active); in the assay with HCT-15, 0.188 µM; in the assay with SW-620, 0.0904 µM (active); in the assay on KM12, 0.393 µM (active). For the same molecule, the GI50 in the assay on SF-539 was 0.526 µM (active).

For `O=S1(=O)C[C@H](NCc2ccccc2)[C@H](NCc2ccccc2)C1`, the GI50 with ACHN, in the assay with IGROV-1, in the assay with OVCAR-5, in the assay with SK-MEL-5, in the assay with TK-10 and in the assay on HOP-92 was > 100 µM (inactive) in each case. Besides, the GI50 in the assay on RPMI-8226 was 22.8 µM (inactive); in the assay on SK-MEL-2 it was > 100 µM (inactive); in the assay on SN12C, > 100 µM (inactive); in the assay with OVCAR-8 it was 96.2 µM (inactive); in the assay with CCRF-CEM it was 29.4 µM (inactive); with COLO 205, > 100 µM (inactive). Also, the GI50 in the assay with HOP-62 is > 100 µM (inactive); in the assay on UO-31 it was > 100 µM (inactive); with U-251, 93.8 µM (inactive); with CAKI-1 it was > 100 µM (inactive); in the assay on SW-620, > 100 µM (inactive); in the assay with KM12 it was > 100 µM (inactive). Besides, the GI50 in the assay with SF-539 was > 100 µM (inactive).

As for `CCCCOc1ccc2c(c1)CC[C@@H]1[C@@H]2CC[C@]2(C)C(=O)N(CCCC)C(=O)C[C@@H]12`, the GI50 in the assay with IGROV-1 was > 100 µM (inactive); in the assay with OVCAR-5, > 100 µM (inactive); in the assay on SK-MEL-5 it was 26.3 µM (inactive); in the assay with HOP-92, > 100 µM (inactive); with RPMI-8226, 65.9 µM (inactive); in the assay with SK-MEL-2 it was > 100 µM (inactive). Moreover, the GI50 in the assay on SN12C was > 100 µM (inactive); in the assay with OVCAR-8, > 100 µM (inactive); in the assay with CCRF-CEM it was 44.6 µM (inactive); in the assay with COLO 205, 91.8 µM (inactive); in the assay on HOP-62 it was > 100 µM (inactive); with UO-31 it was > 100 µM (inactive). Further, the GI50 in the assay with U-251 is > 100 µM (inactive); in the assay on HCT-15, greater than 100 µM; with CAKI-1, > 100 µM (inactive); in the assay on KM12 it was > 100 µM (inactive).

For `CCOC(=O)c1csc(NC(=O)CN2CCCCC2)n1`, the GI50 in the assay on ACHN, with IGROV-1, with OVCAR-5, with SK-MEL-5, in the assay on TK-10 and in the assay with HOP-92 was > 100 µM (inactive) in each case. For the same molecule, the GI50 with RPMI-8226, in the assay on SK-MEL-2, in the assay on OVCAR-8, in the assay with CCRF-CEM, in the assay on COLO 205 and in the assay on HOP-62 was > 100 µM (inactive) in each case. Also, the GI50 with UO-31 was > 100 µM (inactive); with U-251, > 100 µM (inactive); in the assay on HCT-15, greater than 100 µM; in the assay on CAKI-1, > 100 µM (inactive); with SW-620, > 100 µM (inactive); with KM12 it was > 100 µM (inactive). Further, in the assay with SF-539, the GI50 is > 100 µM (inactive).

Regarding `COc1ccc(N2C(=O)C3c4[nH]c5ccc(F)cc5c4C4CCC(C(C)(C)C)CC4C3C2=O)cc1` (stereo unspecified), the GI50 with ACHN was > 10 µM (inactive); with IGROV-1 it was > 10 µM (inactive); in the assay on OVCAR-5, > 10 µM (inactive); with SK-MEL-5, > 10 µM (inactive); with TK-10 it was 9.38 µM (inactive); in the assay on RPMI-8226, > 10 µM (inactive). Also, the GI50 was > 10 µM (inactive) in the assay with SK-MEL-2; > 10 µM (inactive) in the assay with SN12C; 7.8 µM (inactive) with OVCAR-8; 7.13 µM (inactive) in the assay on CCRF-CEM; > 10 µM (inactive) with COLO 205; 7.23 µM (inactive) in the assay on HOP-62. Also, the GI50 in the assay with UO-31 is > 10 µM (inactive); in the assay on U-251 it was 5.02 µM (inactive); with HCT-15, greater than 10 µM; in the assay on CAKI-1, > 10 µM (inactive); in the assay on SW-620, 7.26 µM (inactive); with KM12, > 10 µM (inactive). Besides, the GI50 in the assay with SF-539 is 6.35 µM (inactive).

Regarding `COc1ccc(N[C@H](C[S+]([O-])c2ccc(C)cc2)C(F)(F)C(F)(F)F)cc1` (stereo partly specified), the GI50 with ACHN is > 100 µM (inactive); in the assay with IGROV-1, > 100 µM (inactive); in the assay with OVCAR-5, > 100 µM (inactive); in the assay with SK-MEL-5 it was 68.1 µM (inactive); in the assay with TK-10, > 100 µM (inactive); with HOP-92, 26.1 µM (inactive). In addition, the GI50 was > 100 µM (inactive) with RPMI-8226; > 100 µM (inactive) in the assay on SN12C; 90.6 µM (inactive) in the assay on OVCAR-8; > 100 µM (inactive) in the assay with CCRF-CEM; > 100 µM (inactive) with COLO 205; 57.5 µM (inactive) in the assay on HOP-62. Further, the GI50 in the assay on UO-31 was > 100 µM (inactive); in the assay on U-251 it was 37.4 µM (inactive); in the assay with HCT-15 it was greater than 100 µM; in the assay with CAKI-1, > 100 µM (inactive); with SW-620, > 100 µM (inactive); in the assay on KM12 it was > 100 µM (inactive). In addition, the GI50 with SF-539 is 64.6 µM (inactive).

For the molecule `COC(=O)NN1C(=O)C(=P(c2ccccc2)(c2ccccc2)c2ccccc2)C(C(=O)OC)=C1C`, the GI50 with ACHN is > 100 µM (inactive); in the assay on IGROV-1 it was > 100 µM (inactive); in the assay with SK-MEL-5, > 100 µM (inactive); in the assay with TK-10, > 100 µM (inactive); in the assay with HOP-92, 12.6 µM (inactive); in the assay on RPMI-8226, 60.5 µM (inactive). Further, the GI50 in the assay with SK-MEL-2, in the assay on SN12C, with OVCAR-8, in the assay with CCRF-CEM, in the assay with COLO 205 and with UO-31 was > 100 µM (inactive) in each case. Further, the GI50 in the assay with U-251 was > 100 µM (inactive); in the assay with HCT-15, greater than 100 µM; in the assay with CAKI-1 it was > 100 µM (inactive); in the assay on SW-620, > 100 µM (inactive); in the assay with SF-539 it was > 100 µM (inactive).
